According to patent publication US20240358818A1, “ANTIBODY-INDUCING POLYPEPTIDE AND VACCINE” (priority 2021, published 2024):
No end group written: not given here.

Experiments:
[1] = biological target: S2 protein of SARS-COV-2 (Severe acute respiratory syndrome coronavirus 2, UniProt P0DTC2)
[2] = system: IgG in serum samples of patients recovered from SARS-COV-2 infection; format: binding, human
[3] = biological target: RBD protein of SARS-COV-2 (Severe acute respiratory syndrome coronavirus 2, UniProt P0DTC2)
[4] = biological target: binding between ACE2 and RBD (Severe acute respiratory syndrome coronavirus 2, UniProt P0DTC2); conditions: for inhibition of the binding between ACE2 and RBD: serum of mice sensitized with conjugate, FIG. 2, FIG. 3(A)

Sequence	S2 recognizing ability of mouse serum IgG [1]	reaction with antibodies in serum samples obtained from the 5 patients [2]	RBD recognition ability of mouse serum IgG [3]	further results
ASVVNIQKEIDRLNEVAKNL [#114]	high	strongly react		
DRLNEVAKNLNESLIDLQE (also: conjugate) [#115]	high	strongly react		
ELDSFKEELDKYFKNHTS (also: conjugate) [#111]	high	strongly react		
EVRQIAPGQTGKIADYNYKLPD [#8]			high	
NATRFASVYAWNRKRISNC [#3]			high	inhibition of the binding between ACE2 and RBD [4]: inhibit the binding between ACE2 and RBD
SNLKPFERDISTEIYQAGSTPC [#11]			high	inhibitory ability on ACE2-RBD binding compared with positive control ([4]; mouse serum diluted to 100-fold, positive control mouse anti-RBD polyclonal antibody, FIG. 2): equivalent to that of the positive control; inhibitory effects on ACE2-RBD binding compared with serum of recovered patients ([4]; versus the 4 patients other than patient A, FIG. 3(B)): substantially equivalent
YGVSPTKLNDLCF (also: conjugate) [#5]			without the RBD protein recognizing ability	inhibition of the binding between ACE2 and RBD [4]: substantially no inhibitory activity was observed
